Reference: US20130109687A1, “METHODS OF TREATING HIV INFECTION: INHIBITION OF DNA DEPENDENT PROTEIN KINASE” (priority 2010, published 2013)
Entries after “also recorded” stand apart in the source; their conditions may differ. Peptide text beside a SMILES is read from it. * marks the point of attachment. Cbz = O=C(OCc1ccccc1)*; CH2F = FC*

Experiments:
293T cells = experiment: VPR-induced apoptosis and cell cycle analysis by propidium iodide DNA content in 293T cells; assay type: cell-based, human
Method: (§1) Cell cycle analysis in 293T cells was performed on ethanol-fixed cells using the propidium iodide staining method after transduction with lentiviral vectors encoding wild type or mutant VPR. Cell debris was excluded from the analysis, and the DNA content of cells below the diploid level, sub-G1, was used to calculate the apoptosis rate. The association of VPR with VprBP and DNA-PK was determined by immunoprecipitation. Briefly, whole cell extracts were prepared in lysis buffer and incubated with the relevant antibodies, concentrated on Protein G beads, and analyzed by Western blotting. HIV-1 viral stocks were generated by transfecting 293T cells with the HIV-189.6 wild type and IVPR plasmids followed by propagation in CEMx174 cells as previously described^16. CD4^+ T cells were isolated from elutriated lymphocytes using magnetic bead purification, activated and infected as described in Methods. For siRNA transfections in CD4^+ lymphocytes, isolated CD4 cells were transduced by nucleofection. In some experiments, cells were treated with either DMSO or the DNA-PK inhibitor NU7026 (Sigma) during the infection period. Viability of infected primary CD4^+ T cells was performed using combined staining with Annexin V-APC (BD Pharmigen) and the amine reactive viability dye ViVid (Invitrogen). Flow cytometry was performed with a LSR II cell analyzer.
CEMX174 cells were cultured in RPMI with 10% FBS and antibiotics (penicillin and streptomycin). HEK293T cells were cultured in DMEM supplemented with 10% FBS and antibiotics (penicillin and streptomycin). For immunoprecipitation experiments HEK293T cells were transfected with 3 μg of either […] or 102-HAVpr Q65R using the LipofectAMINE 2000 reagent (Life Technologies, Inc.). For cell cycle analysis HEK293T cells were harvested, washed with ice-cold PBS and resuspended in 70% cold ethanol while vortexing. The cells were incubated at −20° C. overnight, washed once with PBS and resuspended in PBS containing 25 μg/ml propidium iodide and 100 μg/ml RNaseA for 15 minutes at 25° C. Stained cells were then analyzed by flow cytometry.
Lentivirus vectors were produced by transiently transfecting HEK293T cells using the calcium phosphate method. […]. Virus supernatants were collected at 48 h post transfection. The harvested supernatants were cleared by centrifugation, concentrated and frozen at −80° C. for storage.

DNA-PK = target: T1, DNA-PK (Homo sapiens, UniProt P78527); experiment: Western blot of γH2AX (H2AX phosphorylation) in cells transfected with VPR-encoding plasmid; assay type: cell-based; conditions: indicated concentrations of inhibitor (FIG. 2d)
T1 construct: endogenous in cells; host or cells: HEK293T (inferred; only VPR is transfected, DNA-PK is the cells' own)
Method: FIG. 2d, VPR induction of DNA-PKcs autophosphorylation (left, lanes 1,2) and Western blot analysis of γH2AX from cells transfected with a VPR-encoding plasmid and treated with the indicated concentrations of DNA-PK inhibitor NU7026 (right, lanes 3-7). Western blot analysis of autophosphorylated DNA-PKcs was performed using anti-phosphoserine 2056 DNA-PKcs from cells transfected with an empty vector or a VPR-encoding plasmid. Cell lysates were subjected to Western blotting using the indicated antibodies.
Cell extracts for Western blots and immunoprecipitations were made in cell lysis buffer (Cell Signal). Immunoprecipitations were performed overnight at 4° C. using normal rabbit serum, anti-VprBP or anti-DNA-PK polyclonal antibodies (Bethyl Laboratories). Protein G beads (Invitrogen) were then added for 2 h, washed three times with 1× lysis buffer, boiled and loaded onto 4-15% polyacrylamide Tris Glycine gels (BioRad). The primary antibodies used for Western blotting were anti-DNA-PK, anti-VprBP (Bethyl Laboratories), anti-actin (Sigma), anti-γH2AX (Cell Signaling), anti-HA (Santa Cruz Biotechnology), anti-Ku70, and anti-Ku80 (BD Transduction Laboratories).

HIV-189.6 = experiment: Frequency of infection by p24 positivity, flow cytometry; assay type: cell-based, HIV-1; conditions: primary CD4+ lymphocytes, wild type HIV-189.6; NU7026 vs DMSO
Method: Purified, activated CD4^+ T cells were infected 2-3 days after isolation. For nucleofected cells, infection was done 36 h after nucleofection. HIV-1 infection of CD4^+ T lymphocytes was performed in 96-well round-bottomed culture plates by combining 10 μl virus stock with 150 μl CD4^+ T lymphocytes (1.5×10^5 cells). The multiplicity of infection was ˜1.0. CD4^+ T lymphocytes were harvested at the indicated times following exposure to virus.
CD4^+ T lymphocytes were harvested for Annexin V, Vivid and intracellular p24-Gag staining at the indicated times following exposure to virus. In brief, the cells were washed and stained with Annexin V-APC (BD Pharmigen) and Vivid (Invitrogen) for 20 min. Cells were washed once, fixed, and permeabilized with Cytoperm/Cytofix (BD Pharmingen) for 20 min. Cells were then stained for p24 Gag (KC-57 fluorescein isothiocyanate (FITC); Coulter) for 30 min and washed once in 1× Perm/wash buffer (BD Pharmingen). Flow cytometry was performed with an LSR II cell analyzer (Becton Dickinson), and data analysis was performed with FlowJo software (Tree Star, Inc.)

[1] = system: primary human CD4+ T cells infected with HIV-189.6; experiment: Viability (Annexin V / ViVid) of primary CD4+ T cells infected with HIV-189.6; assay type: cell-based; conditions: primary CD4+ lymphocytes, wild type HIV-189.6; NU7026 vs DMSO vehicle; 6 days after infection
Method: as §1, with “For siRNA transfections in CD4^+ lymphocytes, isolated CD4 cells were transduced by nucleofection. In some experiments, cells were treated with either DMSO or the DNA-PK inhibitor NU7026 (Sigma) during the infection period. Viability of infected primary CD4^+ T cells was performed using combined staining with Annexin V-APC (BD Pharmigen) and the amine reactive viability dye ViVid (Invitrogen). Flow cytometry was performed with a LSR II cell analyzer.” left out
CD4^+ T lymphocytes were isolated from elutriated lymphocytes prepared from blood of healthy donors by negative selection with a CD4^+ T-cell isolation kit II (Miltenyi Biotech) according to the manufacturer's instructions. The purity of the isolated CD4^+ T cells was assessed by fluorescence-activated cell sorting (FACS) analysis for CD4 (BD-Pharmingen) and 95% of the cells were CD4^+ upon isolation. […]

[2] = 293T cells transduced with VPR lentiviral vector, NU7026 10 μM vs DMSO, 72 h after transduction
[3] = 293T cells transduced with lentiviral vector encoding wild type VPR, 100 μM Z-VAD-fmk vs DMSO

Which “G2/M cell cycle arrest” value (293T cells; [2]) does the source give for `O=c1cc(N2CCOCC2)oc2c1ccc1ccccc12` [NU7026] here?
Its value is “without diminishing”.

What about the VPR-induced apoptosis (293T cells; [2]) of the same molecule?
The VPR-induced apoptosis was “alleviated”.

What about the “VPR induced H2AX phosphorylation” value (DNA-PK) of the same molecule?
Its value is “diminished by this DNA-PK inhibitor in a dose-dependent manner”.

And the “frequency of infection, p24 positivity” value (HIV-189.6)?
The value was “remained unchanged”.

What about the “direct cell killing by the virus (cell death following HIV infection)” value [1] of the same molecule?
The value was “profoundly diminished; also recorded: substantial reduction”.

What does the source list for `COC(=O)C[C@H](NC(=O)[C@H](C)NC(=O)[C@@H](NC(=O)OCc1ccccc1)C(C)C)C(=O)CF` [zVAD-fmk] (Cbz-Val-Ala-Asp(OMe)-CH2F)?
G2/M blockade (293T cells; [3]): did not reverse; VPR-induced apoptosis (293T cells; [3]): significantly reduced
